# Experimental data from patent US10525069B2, “Treatment of urinary tract infection” (BIOMEDICALS SWEDEN AB, priority 2014, dated 2020).
# Tested on: UTI
# Assay: Clinical course of UTI (occurrence, relapse, symptoms) in treated women
# Type: in vivo, human
# Conditions: Example 4: person, antibiotic received twice, before treatment with the composition
# Procedure: One wheelchair-bound person, with recurrent UTI (UTI every week) was treated according to an embodiment of the invention. Prior to the treatment, the urine of the person was tested using bacteria test strips (NITRISTIC®, RAERAD Products, Sweden) following the instructions from the manufacturer. […] The person was given a composition with 1 g calcium carbonate (pH-KALK, pH Balans AB, Sweden) together with 2 g D-mannose (DM, BECKMAN-KENKO GMBH, Germany) or 1 g citric acid (SANTA MARIA AB, Sweden) together with 2 g D-mannose (DM, BECKMAN-KENKO GMBH, Germany). The compositions were taken in an alternating administration pattern 5 times per day (see Table 2 for details). The initial treatment lasted for 4 days. […] After the initial treatment, the person continued with the treatment to prevent UTI according to Table 2 alternating pH three times a day for five months. […] After discontinuing the treatment, the person relapsed with UTI within 3 weeks.
# Prior to the treatment, the urine was tested using bacteria test strips (NITRISTIC®, RAERAD Products, Sweden) following the instructions from the manufacturer.
# The person was then treated according to an embodiment of the invention (see Table 4 for details). […] Furthermore the bacteria test strips were negative.
compound,measurement,value
CC(C)(C)C(=O)OCOC(=O)[C@@H]1N2C(=O)[C@@H](/N=C/N3CCCCCC3)[C@H]2SC1(C)C [SELEXID],result of antibiotic treatment against UTI,no apparent results
